# Assay results published in patent US8163804B2 (priority 2005, dated 2012).
# Like-named read-outs stand apart in the source and are kept apart here.
# Key:
# [1] = test system: Cucumber Moth (Diaphania indica); experiment: Insecticidal test on cucumber moth, sprayed cucumber leaves, mortality; type: in vivo; conditions: 10 ppm
# Procedure: (§1) Insecticidal Test on Cucumber Moth (Diaphania indica) and Control Test on Powdery Mildew (Sphaerotheca fuliginea) of Cucumbers
# (§2) A liquid chemical which was prepared to the prescribed concentration was sufficiently sprayed on cucumbers (cultivar: sagami-hanpaku) cultured in a greenhouse. After 7 days from spraying, leaves were cut off and put into a plastic cup (diameter: 10 cm, height: 10 cm) along with 5 of second-stage larvae of Diaphania indica, and the mortality was examined 4 days thereafter. Furthermore, 1 day after spraying, the leaves of cucumbers which were previously arranged to be infected by pathogen were uniformly wiped with Sphaerotheca fuliginea thereon using a paintbrush for inoculation and examined after 10 days thereafter. The area occupied by lesion per leaf of cucumber was examined in accordance with the following index, and the control value was calculated from the average severity index of each plot according to the following equation (two replications).
# [2] = test system: Tiger Moth (Trichoplusia ni); experiment: Insecticidal test on tiger moth, cabbage leaf dip, mortality after 6 days; type: in vivo; conditions: 0.5 ppm; 6 days after treatment
# Procedure: Insecticidal Test on Tiger Moth (Trichoplusia ni)
# Cut leaves of cabbages (cultivar: shiki-kaku) were immersed in a liquid chemical which was diluted and prepared to the prescribed concentration for 30 seconds, air-dried, and then put into a plastic vessel having a diameter of 9 cm. Each of 10 second-stage insects of Trichoplusia ni was inoculated and the resulting vessel was allowed to stand in an isothermal chamber maintained at 25 degree centigrade. After 6 days from the treatment, the number of surviving insects was examined and the mortality was calculated (two replications of 10 insects per plot).
# [3] = test system: Turnip Moth (Agrotis segetum); experiment: Control test on turnip moth of cabbage, soil treatment, rate of infected stumps after 7 days; type: in vivo; conditions: 100 gai/10a; 7 days after treatment
# Procedure: (§3) Control Test on Turnip Moth (Agrotis segetum) and Clubroot (Plasmodiophora brassicae) of Cabbage due to Soil Treatment
# (§4) A powder in a prescribed amount was mixed to soil and cabbages (cultivar: shiki-kaku) cultured on a cell medium were planted out. After 7 days from the treatment, the number of infected stumps due to Agrotis segetum was examined and the rate of infected stumps was calculated. Furthermore, after 60 days from the treatment, stumps were picked out, and lesion formation of Plasmodiophora brassicase was examined according to the degrees of severity. The control value was calculated from the average severity index of each plot according to the following equation. In the Table, gai represents the amount of active ingredients (g).
# [4] = test system: Resistant Cotton Melon Aphid (Aphis gossypii); type: in vivo; conditions: 3 ppm, foliar spray on cucumber, 5 days after spraying
# [5] = test system: Rice Blast (Pyricularia oryzae); type: in vivo; conditions: in vivo
# [6] = test system: Common Straight Swift Butterfly (Parnara guttata); experiment: Control test on common straight swift butterfly of paddy rice, powder spray, number of insects after 20 days (Test Example 9); type: in vivo; conditions: 20 gai/10a; 20 days after spraying
# Excerpt: (§5) Control Test on Common Straight Swift Butterfly (Parnara guttata) and Sheath Blight (Rhizoctonia solani) of Paddy Rice
# (§6) A powder of a prescribed amount was sprayed on rice (cultivar: koshihikari) after 70 days from the transplantation (middle of May) Leaves on which Parnara guttata was parasitic before spraying were eliminated. After 20 days from spraying, the number of insects was examined for 100 stumps in each plot. Furthermore, 7 days before spraying, Rhizoctonia solani cultured on a bran medium was inoculated into the base of the plant. After 30 days from spraying, the number of infected stumps was examined for 100 stumps in each plot and the rate of infected stumps was calculated. In the Table, gai represents the amount of active ingredients (g).
# [7] = test system: Common Straight Swift Butterfly (Parnara guttata); experiment: Control test on common straight swift butterfly of paddy rice, powder spray, number of insects after 20 days (Test Example 8); type: in vivo; conditions: 20 gai/10a; 20 days after spraying
# [8] = test system: Small Brown Planthopper (Laodelphax striatellus); experiment: Insecticidal test on small brown planthopper, sprayed rice seedlings, mortality after 6 days; type: in vivo; conditions: 3 ppm, sprayed rice seedlings, 6 days after treatment
# Procedure: Insecticidal Test on Small Brown Planthopper (Laodelphax striatellus)
# A liquid chemical which was diluted and prepared to the prescribed concentration was sprayed on rice seedlings (cultivar: koshihikari), air-dried, and then 10 three-stage insects of Laodelphax striatellus were put into a glass test tube having a diameter of 3 cm and a height of 10 cm along with the seedlings. The test tube was cotton plugged. After 6 days from the treatment, the number of surviving insects was examined and the mortality was calculated (two replications of 10 insects per plot).
# [9] = test system: Powdery Mildew (Sphaerotheca fuliginea); experiment: Control test on powdery mildew of cucumbers, spray, control value from severity index; type: in vivo; conditions: 10 ppm
# Procedure: as §1, §2
# Severity Index • 0: No lesion • 1: Lesion area was not more than 5% • 2: Lesion area was from 6 to 25% • 3: Lesion area was from 26 to 50% • 4: Lesion area was not less than 51% Control Value=(1−average severity in the treated plot/average severity in the untreated plot)×100
# [10] = test system: Sheath Blight (Rhizoctonia solani); experiment: Control test on sheath blight of paddy rice, powder spray, rate of infected stumps after 30 days; type: in vivo; conditions: 20 gai/10a; 30 days after spraying
# Excerpt: as §5, §6
# [11] = test system: Oriental Fruit Moth (Grapholita molesta); experiment: Control test on oriental fruit moth of pear, spray, rate of infected fruit after 40 days; type: in vivo; conditions: 50 ppm; 40 days after spraying
# Procedure: (§7) Control Test on Oriental Fruit Moth (Grapholita molesta) and Scab (Venturia nashicola) of Pear
# (§8) A liquid chemical which was prepared to the prescribed concentration was sufficiently sprayed on 17-year-old pears (cultivar: Hosui) (early June). After 40 days from spraying, the number of infected fruits due to Grapholita molesta was examined for all fruit in the plot, and the rate of infected fruit was calculated. Furthermore, after 14 days from spraying, infection of Venturia nashicola was examined by the degrees for optional 200 leaves in the plot and the severity index was calculated according to the following equation. Severity index=Z(number of infected leaves by the degrees×index)×100/(number of examined leaves×5)
# [12] = test system: Clubroot (Plasmodiophora brassicae); experiment: Control test on clubroot of cabbage, soil treatment, control value after 60 days; type: in vivo; conditions: 100 gai/10a; 60 days after treatment
# Procedure: as §3, §4
# Severity Index • 0: No clubroot attached • 1: Clubroot was attached at a portion of from 1 to 25% of the whole root • 2: Clubroot was attached at a portion of from 25 to 50% of the whole root • 3: Clubroot was attached at a portion of from 50 to 75% of the whole root • 4: Clubroot was attached at a portion of from 75% or more of the whole root Control Value=(1−average severity in the treated plot/average severity in the untreated plot)×100
# [13] = test system: 2-spotted Spider Mite (Tetranychus urticae); experiment: Insecticidal test on 2-spotted spider mite, kidney bean leaf disc with eggs, hatchability of larvae after 6 days; type: in vivo; conditions: 50 ppm; 6 days after spraying
# Procedure: Insecticidal Test on 2-spotted Spider Mite (Tetranychus urticae)
# A plastic cup having a diameter of 8 cm was filled with water and covered by a lid with a hole having a diameter of 1 cm. Absorbent cotton was put on the top of the lid and dropped into water from the lid such that the absorbent cotton was always in a wet state due to a capillary phenomenon. A leaf disc having a diameter of 2 cm was prepared with primary leaves of kidney beans (cultivar: Green top) and placed on the aforementioned absorbent cotton. 4 adult female insects of Tetranychus urticae were inoculated thereon. Next day, the adult female insects were removed, and then the number of insect egg was examined. A liquid chemical which was prepared to the prescribed concentration was sprayed by using a vertical sprayer. After spraying, the resulting cup was allowed to stand in an isothermal chamber maintained at 25 degree centigrade. After 6 days from spraying, the number of hatched larvae that survived on the leaf disc was examined and the hatchability of larvae was calculated (two replications of one concentration per chemical).
# [14] = test system: Green Peach Aphid (Myzus persicae); type: in vivo; conditions: 3 ppm, foliar spray on eggplant, 5 days after spraying
# [15] = test system: Scab (Venturia nashicola); experiment: Control test on scab of pear, spray, severity index after 14 days; type: in vivo; conditions: 50 ppm; 14 days after spraying
# Procedure: as §7, §8
# [16] = test system: Rice Blast (Pyricularia oryzae); type: in vivo; conditions: in vivo; remark: listed apart in the source
# [17] = test system: Small Brown Planthopper (Laodelphax striatellus); experiment: Control test on small brown planthopper, nursery box application of paddy rice, number of parasitic insects after 40 and 60 days; type: in vivo; conditions: 5 gai/box
# Procedure: (§9) Control Test on Small Brown Planthopper (Laodelphax striatellus) and Rice Leafroller (Cnaphalocrocis medinalis) on Nursery Box Application of Paddy Rice
# (§10) Rice (cultivar: Nihonbare) cultured in a nursery box was treated with 50 g of a granule formulation per box, and then transplanted to the rice field. For the control effect against Laodelphax striatellus, the number of parasitic insects was examined for 30 stumps per plot after 40 days and 60 days from the transplantation. In addition, for the control effect against Cnaphalocrocis medinalis, the number of infected leaves was examined for 100 stumps per plot after 50 days from the transplantation, and the infected leaf rate was calculated. In the Table, gai represents the amount of active ingredients (g).
# [18] = test system: Rice Striped Stem Borer (Chilo suppressalis); conditions: 5 gai/box
# [19] = test system: Rice Leafroller (Cnaphalocrocis medinalis); experiment: Control test on rice leafroller, nursery box application of paddy rice, infected leaf rate after 50 days; type: in vivo; conditions: 5 gai/box; 50 days after transplantation
# Procedure: as §9, §10
SMILES,Diaphania indica Mortality (%) [1] [%],Mortality (%) [2] [%],Agrotis segetum Infected stump rate (%) [3] [%],Control rate (%) [4] [%],Pyricularia oryzae Control value [5],Number of insects (number/100 stumps) [6] [number/100 stumps],Number (insects/100 stumps) [7] [insects/100 stumps],Mortality (%) [8] [%],Sphaerotheca fuliginea Control value [9],Rate of infected stumps (%) [10] [%],Grapholita molesta Infected fruit rate (%) [11] [%],Plasmodiophora brassicae Control value [12],Hatchability of larvae (%) [13] [%],Control rate (%) [14] [%],Venturia nashicola Severity index [15],Pyricularia oryzae Control value [16],Laodelphax striatellus Number of parasitic insects/30 stumps ([17]; 40 days) [insects/30 stumps],Laodelphax striatellus Number of parasitic insects/30 stumps ([17]; 60 days) [insects/30 stumps],Chilo suppressalis Mortality (%) [18] [%],Cnaphalocrocis medinalis Infected leaf rate (%) [19] [%]
Cc1cc(C(F)(C(F)(F)F)C(F)(F)F)cc(C)c1NC(=O)c1cccc(N(C)C(=O)c2ccccc2)c1F [Compound 1208],95,75,2.8,18,5,1,1,10,0,99,1.9,9,78,20,52.4,,,,,
Cc1cc(C(F)(C(F)(F)F)C(F)(F)F)cc(C)c1NC(=O)c1cccc(N(C)C(=O)c2cccnc2Cl)c1F [Compound 1245],90,70,2.8,15,0,2,2,5,0,98,2.8,6,85,12,51.6,0,82,140,95,0.32
